# Structures can show the parent of a compound that is named as a salt.
# System: E. faecalis; ATCC #10741
# Test: Direct Inoculation Filter Assay (residual efficacy on filter paper)
# Format: cell-based, Enterococcus faecalis
# Details: 2.0% ester with 4.0% cetyl alcohol and CHG in dried waxy coatings (Table 3)
# Description: Direct Innoculation Filter Assay
# This is an in vitro assay using filter paper to compare the residual efficacy of different surgical skin prep formulations.
# Phosphate Buffered Water solution (PBW) was made by making a 0.25M stock solution by putting 34 grams KH2PO4 into 500 mL of DI water, adjusting the pH to 7.2 with 10N NaOH, and adding enough DI water to make 1 liter. The solution was filtered, sterilized, dispensed into a 1 liter sterile bottle, and stored under refrigeration. Butterfield's PBW was made by adding 1.25 mL of the stock solution to 900 mL of DI water and adding neutralizers, stirring, heating to dissolve the components, and diluting to 1 liter with DI water. The solution was mixed well, dispensed into two 500-mL bottles. The bottles containing the solution were autoclaved for 25 minutes at 121 degree C. The contents were carefully swirled after removing the bottles from the autoclave.
# A Standard Sampling Solution (SSS) was prepared which contained: 0.4 grams KH2PO4, 10.1 grams Na2HPO4, 1.0 gram TRITON X-100 surfactant, 3.0 grams lecithin, 30.0 grams TWEEN 80, and deionized water to bring the total volume to 1 liter. […]
# Onto each filter disc was pipetted 25 μL of each Example preparation or control. […] After 48 hours, colonies were counted and recorded.
# The CFU/mL was determined by multiplying CFU count by dilution rate. The CFU/sample was calculated by multiplying the CFU/mL by 20, the amount of the SSS dilution. The log10 of the CFU/sample was calculated. […]
row,Compound,Effect of emollient ester on bactericidal activity of the CHG
1,"CC(C)OC(=O)CCCCC(=O)OC(C)C [diisopropyl adipate, Diisopropyl adipate]",significantly enhanced the bactericidal activity of the CHG
2,"CCCCCCCCCCCCCCCC(=O)OC(C)C [isopropyl palmitate, Isopropyl palmitate]",did not enhance the activity of the CHG
3,"CCCCOC(=O)CC(O)(CC(=O)OCCCC)C(=O)OCCCC [tributyl citrate, Tributyl citrate]",significantly enhanced the bactericidal activity of the CHG

# Source: patent US8569384B2, “Antimicrobial compositions” (3M Innovative Properties Company, priority 2006, dated 2013)
